In assay [1] the target is T1, FAAH in human bladder epithelial cancer-derived cell line 5678 cells (Homo sapiens, UniProt O00519).
T1 construct: host or cells: human bladder epithelial cancer-derived cell line ('5678' [sic], HTB-9)
T1 sequence (O00519 1-579): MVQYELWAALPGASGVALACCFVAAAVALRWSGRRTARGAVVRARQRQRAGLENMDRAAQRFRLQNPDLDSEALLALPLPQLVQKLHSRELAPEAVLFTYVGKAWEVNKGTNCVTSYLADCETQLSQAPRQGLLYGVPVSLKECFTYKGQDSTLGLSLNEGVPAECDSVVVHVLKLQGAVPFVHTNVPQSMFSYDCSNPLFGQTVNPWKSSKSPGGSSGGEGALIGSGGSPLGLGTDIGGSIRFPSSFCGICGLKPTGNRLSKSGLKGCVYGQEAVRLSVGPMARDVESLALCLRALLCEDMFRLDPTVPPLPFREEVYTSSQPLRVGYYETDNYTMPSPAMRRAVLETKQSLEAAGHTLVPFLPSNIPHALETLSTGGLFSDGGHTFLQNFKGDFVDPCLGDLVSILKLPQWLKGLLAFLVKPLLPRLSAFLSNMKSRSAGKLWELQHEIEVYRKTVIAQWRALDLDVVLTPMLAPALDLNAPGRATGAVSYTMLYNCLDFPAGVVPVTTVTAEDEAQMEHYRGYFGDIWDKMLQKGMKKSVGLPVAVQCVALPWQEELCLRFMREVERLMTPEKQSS
Nature of the assay: Screening for FAAH activity-inhibiting substance with human bladder epithelial cancer-derived cell (IC50, Table 64). It is filed as cell-based. The method, then:
Screening for FAAH Activity-Inhibiting Substance with Human Bladder Epithelial Cancer-Derived Cell
(1) Screening for FAAH Activity-Inhibiting Substance:
Human bladder epithelial cancer-derived cell line […] cells (HTB-9; ATCC) were seeded on a 48-well cell culture plate in an amount of 1×10^5 cell/well, using 10% fetal bovine serum (HyClone)-containing RPMI1640 medium (Invitrogen). After incubated at 37° C. for at least 12 hours, the cells were washed with 400 μl/well of a buffer (Hank's Balanced Salt Solution, 20 mM Hepes-NaOH (pH 7.4)). A test substance dissolved in DMSO was added to a substrate solution (the above buffer containing 3 μCi/ml radiolabeled anandamide (Anandamide [ethanolamine 1-3H]) and 10 μM anandamide) so as to have a concentration of from 0.003 nM to 30 nM. As a control, DMSO alone was added. 100 μl/well of the substrate solution was added to the above cells, and incubated in a CO2 incubator at 37° C. for 30 minutes. Next, the cell culture plate was transferred onto ice, and the substrate solution was removed by suction; and 75 μl/well of a cytolytic solution (the above buffer containing 0.5% Triton X-100, and 10 μM of FAAH-inhibitory activity-having compound, 3′-carbamoylbiphenyl-3-yl cyclohexylcarbamate (URB597; Cayman chemical; Kathuria et al., Nature Med., Vol. 9, pp. 76-81, 2003)) was added thereto, followed by stirring. The resulting cell lysate in every well was individually transferred into a 1.5 ml sample tube, to which was added 150 μl of 1:1 (by volume) chloroform/methanol solution, followed by vortexing. This was centrifuged (15000 rpm, 2 minutes), whereby the decomposed product, ethanolamine (ethanolamine 1-^3H) was separated in the upper layer (water/methanol layer) and the unreacted radiolabeled anandamide was in the lower layer (chloroform layer). 25 μl of the upper layer was transferred into a 96-well organic solvent-resistant white microplate (PicoPlate-96; Perkin Elmer), 150 μl of Microscint-20 (Perkin Elmer) was added thereto, and this was measured with a microplate scintillation counter (TopCount™; Beckman). As compared with the control, the substance that gave a decreased value was selected as an FAAH activity-inhibiting substance.
(2) Measurement of IC50 Value of FAAH Activity-Inhibiting Substance:
A test compound dissolved in DMSO to have a concentration of 10 mM was dissolved in the substrate solution so as to have a varying concentration of from 0.003 nM to 30 μM. According to the method mentioned above, the compound was analyzed for its influence on FAAH activity. As a negative control, DMSO was used. As a positive control, URB597 was added to the substrate solution to have a concentration of 10 μM. Based on the measured value of the positive control, 0%, and on the measured value of the negative control, 100%, IC50 value of the test substance was obtained.

The subject of assay [2] is CPA-induced urinary frequency in rat. In words: animal or person. The format is in vivo. The settings on record: po, 48 h, read-out: effective dose (increase of reduced effective bladder capacity).
Assay [3] concerns the target FAAH (rat brain homogenate) (Rattus norvegicus, UniProt P97612). Nature of the assay: biochemical.

The structures appear in SMILES notation.

FAAH (rat brain homogenate), sequence (P97612 whole entry): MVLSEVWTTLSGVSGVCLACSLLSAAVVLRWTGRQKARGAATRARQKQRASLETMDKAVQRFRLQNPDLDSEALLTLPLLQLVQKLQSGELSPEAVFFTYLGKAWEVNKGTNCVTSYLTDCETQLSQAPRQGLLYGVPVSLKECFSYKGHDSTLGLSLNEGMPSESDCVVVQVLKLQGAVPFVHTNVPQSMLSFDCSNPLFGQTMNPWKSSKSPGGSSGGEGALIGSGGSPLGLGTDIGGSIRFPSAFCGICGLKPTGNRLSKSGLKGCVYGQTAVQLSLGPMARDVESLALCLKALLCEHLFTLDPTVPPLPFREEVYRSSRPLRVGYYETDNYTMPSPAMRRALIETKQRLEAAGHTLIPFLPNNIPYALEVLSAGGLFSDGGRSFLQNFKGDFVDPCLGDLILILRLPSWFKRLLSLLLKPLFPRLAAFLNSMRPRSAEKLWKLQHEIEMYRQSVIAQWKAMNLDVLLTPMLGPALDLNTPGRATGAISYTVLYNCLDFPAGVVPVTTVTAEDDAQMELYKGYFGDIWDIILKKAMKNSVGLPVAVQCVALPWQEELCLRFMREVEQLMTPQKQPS

One may read the IC50 as the midpoint of a concentration-inhibition curve. In assay [1], `O=C(O)c1cncc(OC(=O)N2CCC(Oc3ccc(OCc4cccc(F)c4)cc3)CC2)c1` [Example 218, 5-{[(4-{4-[(3-fluorobenzyl)oxy]phenoxy}piperidin-1-yl)carbonyl]oxy}nicotinic acid] showed an IC50 of 0.44 nM. Also, the minimal effective dose in assay [2] turned out to be 3 mg/kg.
For `Cc1cccc(N2CCC(CCCC3CCN(C(=O)Oc4cncc(C(=O)O)c4)CC3)CC2)n1` [Example 313] the same measures were 0.89 nM and 1 mg/kg.
As to `N#Cc1cccc(COc2ccc(C(=O)N3CCN(C(=O)Oc4cccnc4)CC3)cc2)c1` [Example 151], the IC50 in assay [3] is 27 nM; in assay [1] it was 0.17 nM.
Consider `O=C(Oc1cccnc1)N1CCC(Oc2ccc(OCc3cccc(F)c3)cc2)CC1` [Example 2, (pyridin-3-yl) 4-{4-[(3-fluorobenzyl)oxy]phenoxy}piperidine-1-carboxylate], for which the IC50 turned out to be 0.14 nM in assay [3] and 0.11 nM in assay [1]. The minimal effective dose in assay [2] amounted to 3 mg/kg.
In the same order, the values of `NC(=O)c1cncc(OC(=O)N2CCC(CCc3cccc(C(=O)N4CCCC4)c3)CC2)c1` [Example 359] are 1.3 nM, 0.52 nM and 1 mg/kg.
For the compound `O=C(O)c1cncc(OC(=O)N2CCC(Oc3ccc(OCCC4CCCCC4)cc3)CC2)c1` [Example 228], the IC50 in assay [3] is 0.19 nM; in assay [1], 0.22 nM. Moreover, the minimal effective dose in assay [2] is 1 mg/kg.
In assay [1], `O=C(O)C(=O)O.O=C(O)C1CCN(c2cncc(OC(=O)N3CCC(Oc4ccc(OCc5cccc(F)c5)cc4)CC3)c2)CC1` [Example 261, 1-(5-{[(4-{4-[(3-fluorobenzyl)oxy]phenoxy}piperidin-1-yl)carbonyl]oxy}pyridin-3-yl)piperidine-4-carboxylic acid oxalate] returned an IC50 of 0.54 nM. In assay [2], the minimal effective dose worked out at 3 mg/kg.
In the same order, the values of `CN(C)C(=O)c1cccc(CCC2CCN(C(=O)Oc3cncc(C(N)=O)c3)CC2)c1` [Example 325] are 0.54 nM and 1 mg/kg.

The record behind these values is patent publication US7919495B2, “Pyridyl non-aromatic nitrogen-containing heterocyclic-1-carboxylate compound” (Astellas Pharma, Inc., priority 2005, dated 2011).
